Test results: US12083124B2 (Incyte Corporation, priority 2019, dated 2024)
Where two headings read alike, the source gives them in different places.

Tests used:
[1] = biological target: wild-type un-phosphorylated FGFR3 (Homo sapiens, UniProt P22607); assay: FGFR Enzymatic Assay (FRET peptide phosphorylation), FGFR3
[2] = biological target: wild-type un-phosphorylated FGFR1 (Homo sapiens, UniProt P11362); assay: FGFR Enzymatic Assay (FRET peptide phosphorylation), FGFR1; conditions: pre-incubated for 4 hours
wild-type un-phosphorylated FGFR1, sequence (P11362 22-822): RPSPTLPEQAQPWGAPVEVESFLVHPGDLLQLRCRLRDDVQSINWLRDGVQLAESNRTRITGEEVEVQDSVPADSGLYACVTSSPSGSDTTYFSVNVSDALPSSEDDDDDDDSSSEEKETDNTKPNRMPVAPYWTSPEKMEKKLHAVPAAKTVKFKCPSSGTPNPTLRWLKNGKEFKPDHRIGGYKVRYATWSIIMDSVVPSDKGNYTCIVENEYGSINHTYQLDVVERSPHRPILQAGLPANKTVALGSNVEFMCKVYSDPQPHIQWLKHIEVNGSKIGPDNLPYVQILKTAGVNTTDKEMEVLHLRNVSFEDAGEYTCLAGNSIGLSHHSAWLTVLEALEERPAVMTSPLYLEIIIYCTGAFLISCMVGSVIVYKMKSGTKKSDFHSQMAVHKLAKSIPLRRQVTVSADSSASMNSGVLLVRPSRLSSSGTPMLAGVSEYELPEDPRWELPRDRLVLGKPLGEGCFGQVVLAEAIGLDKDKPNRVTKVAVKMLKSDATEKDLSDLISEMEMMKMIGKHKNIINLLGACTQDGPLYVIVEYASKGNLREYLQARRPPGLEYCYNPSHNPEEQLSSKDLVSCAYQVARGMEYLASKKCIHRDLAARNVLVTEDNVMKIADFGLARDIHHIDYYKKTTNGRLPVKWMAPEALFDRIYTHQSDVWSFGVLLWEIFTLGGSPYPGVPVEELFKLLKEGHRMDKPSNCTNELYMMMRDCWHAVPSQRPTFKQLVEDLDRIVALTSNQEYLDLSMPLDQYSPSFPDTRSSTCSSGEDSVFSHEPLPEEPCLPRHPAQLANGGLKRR
Protocol: The inhibitor potency of the exemplified compounds was determined in an enzyme discontinuous assay that measures peptide phosphorylation using FRET measurements to detect product formation. Inhibitors were serially diluted in DMSO and a volume of 0.2 μL was transferred to the wells of a 384-well plate. […] Appropriate controls (enzyme blank and enzyme with no inhibitor) were included on the plate. […] The 10 μL/well reaction concentration of the peptide substrate was 500 nM whereas the ATP concentration was maintained near or below the ATP Km. The ATP Km values were pre-determined in a separate series of experiments. The reaction plate was incubated at 25° C. for 1 hr and the reactions were ended with the addition of 5 μL/well of quench solution (50 mM Tris, 150 mM NaCl, 0.5 mg/mL BSA, pH 7.8; 45 mM EDTA, 600 nM staurosporin, with Perkin Elmer Lance Reagents at 3.75 nM Eu-antibody PY20 and 180 nM APC-Streptavidin). The plate was allowed to equilibrate for ˜10 minutes at ambient temperature before scanning on a PheraStar plate reader (BMG Labtech) instrument.
Either GraphPad prism or XLfit was used to analyze the data. The IC50 values were derived by fitting the data to a four parameter logistic equation producing a sigmoidal dose-response curve with a variable Hill coefficient. Prism equation: Y=Bottom+(Top-Bottom)/(1+10^((Log IC50-X)*Hill slope)); XLfit equation: Y=(A+((B−A)/(1+((X/C)^D)))) where X is the logarithm of inhibitor concentration and Y is the response.
GraphPad prism3 was used to analyze the data. The IC50 values were derived by fitting the data to the equation for a sigmoidal dose-response with a variable slope. Y=Bottom+(Top-Bottom)/(1+10^((Log IC50-X)*Hill Slope)) where X is the logarithm of concentration and Y is the response.
The data in Table 1 was measured in wild-type un-phosphorylated FGFR1, FGFR2, FGFR3, and FGFR4 proteins.

[3] = biological target: wild-type un-phosphorylated FGFR4 (Homo sapiens, UniProt P22455); assay: FGFR Enzymatic Assay (FRET peptide phosphorylation), FGFR4
wild-type un-phosphorylated FGFR4, sequence (P22455 22-802): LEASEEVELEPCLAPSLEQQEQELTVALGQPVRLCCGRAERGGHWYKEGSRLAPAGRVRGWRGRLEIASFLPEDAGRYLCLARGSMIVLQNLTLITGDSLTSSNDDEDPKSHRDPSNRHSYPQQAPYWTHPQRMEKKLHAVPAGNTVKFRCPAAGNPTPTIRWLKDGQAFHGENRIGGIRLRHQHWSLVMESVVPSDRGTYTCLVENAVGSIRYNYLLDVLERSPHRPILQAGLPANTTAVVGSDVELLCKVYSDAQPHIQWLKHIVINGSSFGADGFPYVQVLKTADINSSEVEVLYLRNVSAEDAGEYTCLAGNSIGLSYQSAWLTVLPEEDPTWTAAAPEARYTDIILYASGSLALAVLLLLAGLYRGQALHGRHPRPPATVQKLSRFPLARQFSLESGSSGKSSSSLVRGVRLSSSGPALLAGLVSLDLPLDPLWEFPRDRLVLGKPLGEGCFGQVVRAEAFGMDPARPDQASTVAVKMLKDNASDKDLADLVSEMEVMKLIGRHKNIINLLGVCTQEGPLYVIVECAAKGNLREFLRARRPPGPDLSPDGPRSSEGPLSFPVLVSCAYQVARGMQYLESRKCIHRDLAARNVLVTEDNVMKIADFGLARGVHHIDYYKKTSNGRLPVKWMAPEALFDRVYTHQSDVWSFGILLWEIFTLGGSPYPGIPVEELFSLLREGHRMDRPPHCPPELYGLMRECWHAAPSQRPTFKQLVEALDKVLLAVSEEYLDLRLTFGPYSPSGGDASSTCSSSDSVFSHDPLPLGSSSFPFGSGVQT

[4] = biological target: wild-type un-phosphorylated FGFR2 (Homo sapiens, UniProt P21802); assay: FGFR Enzymatic Assay (FRET peptide phosphorylation), FGFR2
wild-type un-phosphorylated FGFR2, sequence (P21802 22-821): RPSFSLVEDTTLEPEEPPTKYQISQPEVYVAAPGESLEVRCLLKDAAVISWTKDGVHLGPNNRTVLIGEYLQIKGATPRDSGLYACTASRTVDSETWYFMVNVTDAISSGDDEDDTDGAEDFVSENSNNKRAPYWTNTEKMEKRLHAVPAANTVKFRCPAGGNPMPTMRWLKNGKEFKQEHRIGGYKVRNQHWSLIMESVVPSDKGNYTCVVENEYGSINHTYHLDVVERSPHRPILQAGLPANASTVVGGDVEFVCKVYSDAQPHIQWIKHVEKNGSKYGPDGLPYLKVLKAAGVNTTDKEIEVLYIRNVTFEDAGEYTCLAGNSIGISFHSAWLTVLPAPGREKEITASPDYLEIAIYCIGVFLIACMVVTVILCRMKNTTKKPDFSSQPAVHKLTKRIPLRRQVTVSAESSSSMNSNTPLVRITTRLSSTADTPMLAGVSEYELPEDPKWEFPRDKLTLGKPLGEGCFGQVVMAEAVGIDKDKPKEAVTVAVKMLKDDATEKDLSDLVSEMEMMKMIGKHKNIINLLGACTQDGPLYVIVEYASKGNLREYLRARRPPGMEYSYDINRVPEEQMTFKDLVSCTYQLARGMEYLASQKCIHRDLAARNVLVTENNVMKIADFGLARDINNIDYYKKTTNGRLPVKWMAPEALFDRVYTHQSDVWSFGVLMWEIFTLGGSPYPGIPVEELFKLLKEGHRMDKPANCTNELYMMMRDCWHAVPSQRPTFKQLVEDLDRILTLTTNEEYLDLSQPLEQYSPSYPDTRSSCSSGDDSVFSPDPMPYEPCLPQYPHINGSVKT

[5] = read-out: FGFR1, wild-type un-phosphorylated FGFR1
[6] = read-out: FGFR4, wild-type un-phosphorylated FGFR4, pre-incubated for 4 hours
[7] = FGFR1, wild-type un-phosphorylated FGFR1
[8] = read-out: FGFR2, wild-type un-phosphorylated FGFR2, pre-incubated for 4 hours

wild-type un-phosphorylated FGFR3, sequence (P22607 23-806): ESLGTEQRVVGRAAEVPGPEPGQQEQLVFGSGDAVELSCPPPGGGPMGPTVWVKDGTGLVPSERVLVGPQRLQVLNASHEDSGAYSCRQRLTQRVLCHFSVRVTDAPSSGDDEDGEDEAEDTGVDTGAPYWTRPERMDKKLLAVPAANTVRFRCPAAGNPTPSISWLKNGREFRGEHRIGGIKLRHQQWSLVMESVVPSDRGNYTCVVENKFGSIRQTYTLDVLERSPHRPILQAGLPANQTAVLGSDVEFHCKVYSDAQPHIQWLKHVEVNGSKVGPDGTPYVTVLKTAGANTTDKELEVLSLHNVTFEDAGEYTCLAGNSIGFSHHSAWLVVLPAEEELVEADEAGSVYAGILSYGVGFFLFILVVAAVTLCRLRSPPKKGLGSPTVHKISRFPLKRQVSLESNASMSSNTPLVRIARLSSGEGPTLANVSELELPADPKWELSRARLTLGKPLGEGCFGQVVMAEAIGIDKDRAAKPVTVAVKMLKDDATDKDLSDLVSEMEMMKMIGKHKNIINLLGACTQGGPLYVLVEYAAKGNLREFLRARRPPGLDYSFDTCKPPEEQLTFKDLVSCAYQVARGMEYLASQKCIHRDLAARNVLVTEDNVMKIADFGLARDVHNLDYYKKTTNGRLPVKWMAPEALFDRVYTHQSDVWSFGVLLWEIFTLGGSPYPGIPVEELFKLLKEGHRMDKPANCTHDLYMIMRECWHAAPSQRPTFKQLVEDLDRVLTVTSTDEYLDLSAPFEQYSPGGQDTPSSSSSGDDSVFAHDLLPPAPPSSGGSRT

Row | Compound | IC50 [1] [nM] | IC50 [2, 5] [nM] | IC50 [3, 6] [nM] | IC50 [4] [nM] | IC50 [3] [nM] | IC50 [2, 7] [nM] | IC50 [4, 8] [nM]
1 | COCC(=O)N1CC[C@H](n2cc(-c3n[nH]c4cc(OC)c(-c5cccc6c5CCC6C#N)nc34)cn2)C1 (single isomer, unassigned) [Example 168] | < 6 | 6 to 40 | 6 to 40 | < 6 | – | – | –
2 | COc1cc2[nH]nc(-c3ccc(C4CCN(C(=O)[C@@H]5CCCN5C)CC4)nc3)c2nc1-c1cccc2c1CCC2 [Example 108, 5-(2,3-Dihydro-1H-inden-4-yl)-6-methoxy-3-(6-(1-(methyl-L-prolyl)piperidin-4-yl)pyridin-3-yl)-1H-pyrazolo[4,3-b]pyridine] | < 6 | 6 to 40 | 6 to 40 | < 6 | – | – | –
3 | COc1cc2[nH]nc(-c3cnn([C@H]4CCN(C(=O)[C@H](C)O)C4)c3)c2nc1-c1cccc2c1CCC2 [Example 133, (S)-1-((S)-3-(4-(5-(2,3-Dihydro-1H-inden-4-yl)-6-methoxy-1H-pyrazolo[4,3-b]pyridin-3-yl)-1H-pyrazol-1-yl)pyrrolidin-1-yl)-2-hydroxypropan-1-one] | < 6 | 6 to 40 | – | < 6 | 40 to 100 | – | –
4 | COc1cc2[nH]nc(-c3ccc(C45CC4CN(CCO)C5)nc3)c2nc1-c1cccc2c1CCC2 (centres unmarked) [Example 194A, 2-(1-(5-(5-(2,3-Dihydro-1H-inden-4-yl)-6-methoxy-1H-pyrazolo[4,3-b]pyridin-3-yl)pyridin-2-yl)-3-azabicyclo[3.1.0]hexan-3-yl)ethan-1-ol] | < 6 | 6 to 40 | 6 to 40 | < 6 | – | – | –
5 | COc1cc2[nH]nc(-c3ccc(C4CN(C(=O)CCO)C4)nc3)c2nc1-c1cccc2c1CCC2 [Example 175, 1-(3-(5-(5-(2,3-Dihydro-1H-inden-4-yl)-6-methoxy-1H-pyrazolo[4,3-b]pyridin-3-yl)pyridin-2-yl)azetidin-1-yl)-3-hydroxypropan-1-one] | < 6 | 6 to 40 | 6 to 40 | < 6 | – | – | –
6 | COc1cc2[nH]nc(-c3ccc(N4CCOCC4)nc3)c2nc1-c1cccc2c1CCC2 [Example 58, 4-(5-(5-(2,3-Dihydro-1H-inden-4-yl)-6-methoxy-1H-pyrazolo[4,3-b]pyridin-3-yl)pyridin-2-yl)morpholine] | < 6 | – | – | < 6 | 40 to 100 | 40 to 100 | –
7 | CCNC(=O)N1CCN(c2ccc(-c3n[nH]c4cc(OC)c(-c5cccc6c5CCC6)nc34)cn2)CC1 [Example 59, 4-(5-(5-(2,3-Dihydro-1H-inden-4-yl)-6-methoxy-1H-pyrazolo[4,3-b]pyridin-3-yl)pyridin-2-yl)-N-ethylpiperazine-1-carboxamide] | < 6 | 6 to 40 | 6 to 40 | < 6 | – | – | –
8 | COc1cc2[nH]nc(-c3cnn(C4CN(C(=O)C[C@@H](C)O)C4)c3)c2nc1-c1cccc2c1CCC2 [Example 134, (R)-1-(3-(4-(5-(2,3-Dihydro-1H-inden-4-yl)-6-methoxy-1H-pyrazolo[4,3-b]pyridin-3-yl)-1H-pyrazol-1-yl)azetidin-1-yl)-3-hydroxybutan-1-one] | < 6 | 6 to 40 | – | < 6 | 40 to 100 | – | –
9 | COc1cc2[nH]nc(-c3cnn(C4CN(C(=O)CN5CCN(C)CC5)C4)c3)c2nc1-c1cccc2c1CCC2 [Example 120, 1-(3-(4-(5-(2,3-Dihydro-1H-inden-4-yl)-6-methoxy-1H-pyrazolo[4,3-b]pyridin-3-yl)-1H-pyrazol-1-yl)azetidin-1-yl)-2-(4-methylpiperazin-1-yl)ethan-1-one] | < 6 | 6 to 40 | – | < 6 | 40 to 100 | – | –
10 | COc1cc2[nH]nc(-c3cnn(C)c3)c2nc1-c1cccc(C)c1C [Example 1, 5-(2,3-Dimethylphenyl)-6-methoxy-3-(1-methyl-1H-pyrazol-4-yl)-1H-pyrazolo[4,3-b]pyridine] | < 6 | – | – | – | > 100 | > 100 | 6 to 40
11 | COc1cc2[nH]nc(-c3cnn(C4CN(C(=O)[C@@H]5COCCN5C)C4)c3)c2nc1-c1cccc2c1CCC2 [Example 128, (S)-(3-(4-(5-(2,3-Dihydro-1H-inden-4-yl)-6-methoxy-1H-pyrazolo[4,3-b]pyridin-3-yl)-1H-pyrazol-1-yl)azetidin-1-yl)(4-methylmorpholin-3-yl)methanone] | < 6 | 6 to 40 | – | < 6 | 40 to 100 | – | –
12 | COc1cc2[nH]nc(-c3ccc(C4CCC(NC(=O)CO)C4)nc3)c2nc1-c1cccc2c1CCC2 (centres unmarked) [Example 157, N-(3-(5-(5-(2,3-Dihydro-1H-inden-4-yl)-6-methoxy-1H-pyrazolo[4,3-b]pyridin-3-yl)pyridin-2-yl)cyclopentyl)-2-hydroxyacetamide] | < 6 | – | – | < 6 | 40 to 100 | 40 to 100 | –
13 | COc1cc2[nH]nc(-c3cnn(C4CN(C(=O)C5(C#N)CC5)C4)c3)c2nc1-c1cccc2c1CCC2 [Example 149, 1-(3-(4-(5-(2,3-Dihydro-1H-inden-4-yl)-6-methoxy-1H-pyrazolo[4,3-b]pyridin-3-yl)-1H-pyrazol-1-yl)azetidine-1-carbonyl)cyclopropane-1-carbonitrile] | < 6 | 6 to 40 | 6 to 40 | < 6 | – | – | –
14 | COc1cc2[nH]nc(-c3cnn(C4CN(C(=O)N(C)C)C4)c3)c2nc1-c1cccc2c1CCC2 [Example 24, 3-(4-(5-(2,3-Dihydro-1H-inden-4-yl)-6-methoxy-1H-pyrazolo[4,3-b]pyridin-3-yl)-1H-pyrazol-1-yl)-N,N-dimethylazetidine-1-carboxamide] | < 6 | 6 to 40 | 6 to 40 | < 6 | – | – | –
15 | COc1cc2[nH]nc(-c3ccc(C4CCN(C(C)C(N)=O)C4)nc3)c2nc1-c1cccc2c1CCC2 (single isomer, unassigned) [Example 107, 2-(3-(5-(5-(2,3-Dihydro-1H-inden-4-yl)-6-methoxy-1H-pyrazolo[4,3-b]pyridin-3-yl)pyridin-2-yl)pyrrolidin-1-yl)propanamide] | < 6 | 6 to 40 | 6 to 40 | < 6 | – | – | –
16 | COc1cc2[nH]nc(-c3cnn([C@H]4CCN(C(=O)[C@@H](C)O)C4)c3)c2nc1-c1cccc2c1CCC2 [Example 132, (R)-1-((S)-3-(4-(5-(2,3-Dihydro-1H-inden-4-yl)-6-methoxy-1H-pyrazolo[4,3-b]pyridin-3-yl)-1H-pyrazol-1-yl)pyrrolidin-1-yl)-2-hydroxypropan-1-one] | < 6 | 6 to 40 | – | < 6 | 40 to 100 | – | –
17 | COc1cc2[nH]nc(-c3ccc(C4CC(N(C)C(=O)CO)C4)nc3)c2nc1-c1cccc2c1CCC2 (centres unmarked) [Example 178, N-(3-(5-(5-(2,3-Dihydro-1H-inden-4-yl)-6-methoxy-1H-pyrazolo[4,3-b]pyridin-3-yl)pyridin-2-yl)cyclobutyl)-2-hydroxy-N-methylacetamide] | < 6 | 6 to 40 | 6 to 40 | < 6 | – | – | –
18 | COc1cc2[nH]nc(-c3cnn(Cc4ccncc4)c3)c2nc1-c1cccc2c1CCC2 [Example 27, 5-(2,3-Dihydro-1H-inden-4-yl)-6-methoxy-3-(1-(pyridin-4-ylmethyl)-1H-pyrazol-4-yl)-1H-pyrazolo[4,3-b]pyridine] | – | – | – | < 6 | 40 to 100 | 40 to 100 | –
19 | COc1cc2[nH]nc(-c3ccc(N4CCN5C[C@H](O)C[C@H]5C4)nc3)c2nc1-c1cccc(C)c1F [Example 94, (7R,8aS)-2-(5-(5-(2-Fluoro-3-methylphenyl)-6-methoxy-1H-pyrazolo[4,3-b]pyridin-3-yl)pyridin-2-yl)octahydropyrrolo[1,2-a]pyrazin-7-ol] | < 6 | – | – | – | – | > 100 | 6 to 40
20 | COc1cc2[nH]nc(-c3ccc(C45CC4CN(C(=O)[C@H]4COCCN4C)C5)nc3)c2nc1-c1cccc2c1CCC2 (stereo partly drawn) [Example 192, (1-(5-(5-(2,3-Dihydro-1H-inden-4-yl)-6-methoxy-1H-pyrazolo[4,3-b]pyridin-3-yl)pyridin-2-yl)-3-azabicyclo[3.1.0]hexan-3-yl)((R)-4-methylmorpholin-3-yl)methanone] | < 6 | 6 to 40 | – | < 6 | – | – | –
21 | [2H]C([2H])([2H])c1cccc(-c2nc3c(-c4ccc(N5CCN(C)CC5)nc4)n[nH]c3cc2OC)c1C [Example 68, 6-Methoxy-5-(2-methyl-3-(methyl-d3)phenyl)-3-(6-(4-methylpiperazin-1-yl)pyridin-3-yl)-1H-pyrazolo[4,3-b]pyridine] | < 6 | – | – | < 6 | – | 40 to 100 | –
22 | COc1cc2[nH]nc(-c3ccc(C45CC4CN(CCO)C5)nc3)c2nc1-c1cccc2c1CCC2 (single isomer, unassigned) [Example 194B, 2-(1-(5-(5-(2,3-Dihydro-1H-inden-4-yl)-6-methoxy-1H-pyrazolo[4,3-b]pyridin-3-yl)pyridin-2-yl)-3-azabicyclo[3.1.0]hexan-3-yl)ethan-1-ol] | < 6 | 6 to 40 | – | < 6 | – | – | –
23 | COc1cc2[nH]nc(-c3ccc(N4CCC(O)CC4)nc3)c2nc1-c1cccc(C)c1C [Example 46, 1-(5-(5-(2,3-Dimethylphenyl)-6-methoxy-1H-pyrazolo[4,3-b]pyridin-3-yl)pyridin-2-yl)piperidin-4-ol] | < 6 | – | – | < 6 | – | > 100 | –
